Experiment: Pharmacokinetic analysis: apparent half-life of L-Dopa in rat plasma after dosing prodrug co-dosed with Benserazide
Assay type: in vivo
Details: male Wistar rats, L-Dopa generated from prodrug
Method: The compound of the invention (I) and comparison compounds (II-VII) were tested in an assay which measures parameters relevant to the pharmacokinetic profile of the test compound. The assay measured the length of time L-dopa remained in the blood of test animals Naïve male Wistar rats (bodyweight=250-500 g) were used for the pharmacokinetic studies. Animals were fasted overnight. The compound of interest was dissolved in 0.9% saline and co-dosed with Benserazide (10 mg/kg) at a molecular weight equivalent dose to 12.5 mg/kg L-Dopa. Blood samples were taken via a butterfly needle located into the lateral tail vein and collected into sample tubes containing heparin as the anti-coagulant. Blood samples were centrifuged at 5000 rpm for 10 minutes; the supernatant plasma was removed and stored at −80° C. Stock solutions of 10 mM L-Dopa and Warfarin were prepared in 20% TFA, 10 mM sodium meta bisulphite and DMSO, respectively. […] Quantification of L-Dopa and Warfarin was achieved by monitoring the transitions of m/z=198.075/152.1 and […], respectively. The apparent half-life of the L-Dopa generated from the prodrugs was calculated from the terminal plasma samples using non compartment models of WinNonLin (Pharsight California USA) with no weighting.

For COC(=O)[C@@H](N)Cc1ccc(OC(=O)CC(C)(C)C)c(OC(=O)CC(C)(C)C)c1.Cl [I, (S)-2-[3,4-Bis-(3,3-dimethyl-butyryloxy)-phenyl]-1-methoxycarbonyl-ethyl-ammonium chloride], the “apparent half-life compared with structurally analogous comparison compounds” value was “significantly greater than the structurally analogous comparison compounds”.

From patent US8377986B2, “Amino acid derivatives” (Proximagen Ltd., priority 2007, dated 2013)
